Data taken from patent US8685974B2 (Bayer CropScience AG, priority 2009, dated 2014).
Several values for one entry are separate records, joined by “and”; a condition that tells them apart may be missing. Equal values may be shown once. Read-outs that look alike come from different tables or passages of the source. Marks after values point to notes of the source that are not given here.

How the values were obtained:
Rhizoctonia solani = assay: Rhizoctonia test (rice) / protective; format: in vivo; settings: 500 ppm active compound, protective spray, evaluated 4 days after inoculation
Protocol: Rhizoctonia Test (Rice)/Protective
Solvent: 28.5 parts by weight of acetone
Emulsifier: 1.5 parts by weight of polyoxyethylene alkyl phenyl ether
To produce a suitable preparation of active compound, 1 part by weight of active compound is mixed with the stated amounts of solvent and emulsifier, and the concentrate is diluted with water to the desired concentration.
To test for protective activity, young plants are sprayed with the preparation of active compound at the stated rate of application. One day after spraying, the plants are inoculated with a hypha of the causal agent of rice sheath blight (Rhizoctonia solani). The plants are then placed in an incubator at approximately 25° C. and a relative atmospheric humidity of approximately 100%.
The test is evaluated 4 days after the inoculation. 0% means an efficacy which corresponds to that of the control, while an efficacy of 100% means that no disease is observed.

Cochliobolus miyabeanus = assay: Cochliobolus test (rice) / protective; format: in vivo; settings: 500 ppm active compound, protective spray, evaluated 4 days after inoculation
Peronospora parasitica = assay: In vivo test on Peronospora parasitica (crucifer downy mildew); settings: dose of 500 ppm; cabbage plants; grading 5 days after contamination
Protocol: In Vivo Test on Peronospora parasitica (Crucifer Downy Mildew)
The active ingredients tested are prepared by homogenization in a mixture of acetone/Tween/DMSO, then diluted with water to obtain the desired active material concentration.
Cabbage plants (Eminence variety) in starter cups, sown on a 50/50 peat soil-pozzolana substrate and grown at 18-20° C., are treated at the cotyledon stage by spraying with the aqueous suspension described above.
(§1) Plants, used as controls, are treated with an aqueous solution not containing the active material.
After 24 hours, the plants are contaminated by spraying them with an aqueous suspension of Peronospora parasitica spores (50 000 spores per ml). The spores are collected from infected plant.
The contaminated cabbage plants are incubated for 5 days at 20° C., under a humid atmosphere.
Grading is carried out 5 days after the contamination, in comparison with the control plants.

Sphaerotheca fuliginea = assay: In vivo test on Sphaerotheca fuliginea (cucurbits powdery mildew); settings: dose of 500 ppm; gherkin plants; grading 12 days after contamination
Protocol: In Vivo Test on Sphaerotheca fuliginea (Cucurbits Powdery Mildew)
(§2) The active ingredients tested are prepared by homogenization in a mixture of acetone/tween/DMSO, then diluted with water to obtain the desired active material.
Gherkin plants (Vert petit de Paris variety) in starter cups, sown on a 50/50 peat soil-pozzolana substrate and grown at 20° C./23° C., are treated at the cotyledon Z10 stage by spraying with the aqueous suspension described above. Plants, used as controls, are treated with an aqueous solution not containing the active material.
After 24 hours, the plants are contaminated by spraying them with an aqueous suspension of Sphaerotheca fuliginea spores (100 000 spores per ml). The spores are collected from a contaminated plants. The contaminated gherkin plants are incubated at about 20° C./25° C. and at 60/70% relative humidity.
Grading (% of efficacy) is carried out 12 days after the contamination, in comparison with the control plants.

Puccinia recondita = assay: In vivo test on Puccinia recondita (brown rust); settings: dose of 500 ppm; wheat plants; grading 10 days after contamination
Protocol: In Vivo Test on Puccinia recondita (Brown Rust)
as §2
Wheat plants (Scipion variety) sown on 50/50 peat soil-pozzolana substrate in starter cups and grown at 12° C., are treated at the 1-leaf stage (10 cm tall) by spraying with the aqueous suspension described above.
as §1
After 24 hours, the plants are contaminated by spraying the leaves with an aqueous suspension of Puccinia recondita spores (100,000 spores per ml). The spores are collected from a 10-day-old contaminated wheat and are suspended in water containing 2.5 ml/l of tween 80 10%. The contaminated wheat plants are incubated for 24 hours at 20° C. and at 100% relative humidity, and then for 10 days at 20° C. and at 70% relative humidity.
Grading is carried out 10 days after the contamination, in comparison with the control plants.

[1] = test system: Mycosphaerella graminicola; assay: In vivo test on Mycosphaerella graminicola (wheat leaf spot); settings: dose of 500 ppm; wheat plants; grading 21 to 28 days after contamination
Protocol: In Vivo Test on Mycosphaerella graminicola (Wheat Leaf Spot)
The active ingredients tested are prepared by homogenization in a mixture of acetone/tween/DMSO, then diluted with water to obtain the desired active material concentration.
Wheat plants (Scipion variety), sown on a 50/50 peat soil-pozzolana substrate in starter cups and grown at 12° C., are treated at the 1-leaf stage (10 cm tall) by spraying with the aqueous suspension described above. Plants, used as controls, are treated with an aqueous solution not containing the active material.
After 24 hours, the plants are contaminated by spraying them with an aqueous suspension of Mycosphaerella graminicola spores (500 000 spores per ml). The spores are collected from a 7-day-old culture. The contaminated wheat plants are incubated for 72 hours at 18° C. and at 100% relative humidity, and then for 21 to 28 days at 90% relative humidity.
Grading (% of efficacy) is carried out 21 to 28 days after the contamination, in comparison with the control plants.

[2] = for logP value of the minor isomer (in parenthesis in column Isomer ratio [d]): main value of the example measured by method [b]
Pyrenophora teres = assay: In vivo test on Pyrenophora teres (barley net blotch); settings: dose of 500 ppm; barley plants; grading 12 days after contamination
How it was run: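 Barley plants (Plaisant) grown at 12° C. sprayed at 1-leaf stage with compound in acetone/Tween/DMSO diluted in water; 24 h later inoculated with P. teres spores (12,000 spores/ml). Incubated 24 h at ~20° C., 100% RH, then 12 days at 80% RH; graded 12 days post-inoculation against untreated controls.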

Fusarium proliferatum = assay: Production of fumonisin FB1 by Fusarium proliferatum (microtiter plate, HPLC-MS/MS and OD620); format: cell-based; settings: for % inhibition FB1 production at 50 μM: 5 days at 20° C., HPLC-MS/MS; for % inhibition fungal growth at 50 μM: Fusarium proliferatum, OD620 at start and after 5 days
Botrytis cinerea = assay: In vivo test on Botrytis cinerea (grey mould); settings: dose of 500 ppm; gherkin plants; grading 5/7 days after contamination
Protocol: In Vivo Test on Botrytis cinerea (Grey Mould)
The active ingredients tested are prepared by homogenization in a mixture of acetone/Tween/DMSO, then diluted with water to obtain the desired active material
Gherkin plants (Vert petit de Paris variety), sown on a 50/50 peat soil-pozzolana substrate in starter cups and grown at 18-20° C., are treated at the cotyledon Z11 stage by spraying with the active ingredient prepared as described above.
as §1
After 24 hours, the plants are contaminated by depositing drops of an aqueous suspension of Botrytis cinerea spores (150,000 spores per ml) on upper surface of the leaves. The spores are collected from a 15-day-old culture and are suspended in a nutrient solution composed of: • 20 g/L of gelatine; • 50 g/L of D-fructose; • 2 g/L of NH4NO3; • 1 g/L of KH2PO4.
The contaminated cucumber plants are settled for 5/7 days in a climatic room at 15-11° C. (day/night) and at 80% relative humidity.
Grading is carried out 5/7 days after the contamination, in comparison with the control plants.

Fusarium graminearum = format: cell-based; settings: 50 μM; for % Inhibition of DON/AcDON at 50 μM: 7 days at 28° C.
Alternaria solani = assay: Alternaria test (tomato) / protective; format: in vivo; settings: 500 ppm active compound, protective spray, evaluated 7 days after inoculation
How it was run: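 Young tomato plants sprayed protectively with compound formulated in DMF with alkylaryl polyglycol ether emulsifier and diluted in water to the application rate. After inoculation, plants held at 96% rel. humidity and 20° C. Efficacy scored 7 days post-inoculation: 0% equals untreated control, 100% no infection.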

Leptosphaeria nodorum = Leptosphaeria nodorum test (wheat) / protective; format: in vivo; settings: 500 ppm active compound, protective spray, evaluated 7-9 days after inoculation
How it was run: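 Young wheat plants sprayed protectively with compound in DMF/alkylaryl polyglycol ether emulsion diluted in water, then kept in greenhouse at 90% rel. humidity, 22° C. Scored 7-9 days after inoculation as % efficacy, 0% equal to untreated control and 100% no infection.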

Aspergillus parasiticus = format: cell-based; settings: for % Inhibition of Aflatoxin at 50 μM: 7 days at 20° C.

SMILES	protection (% of efficacy) (Sphaerotheca fuliginea) [%]	protection (Puccinia recondita)	protection (% of efficacy) [1] [%]	log p ([2]; pH 2.7)	protection (Pyrenophora teres) [%]	protection (Botrytis cinerea)	also measured
C=CC(C)n1cc(-c2ccncc2)c(-c2ccc(Cl)s2)n1 (racemic) [Example 61]	94	77%	77	1.91^[b]			efficacy (Rhizoctonia solani): 98%; efficacy (Cochliobolus miyabeanus): 92%; protection (Peronospora parasitica): 100%; logP value of the minor isomer (in parenthesis in column Isomer ratio [d]) ([2]; pH 2.7): (1.76)
Clc1ccc(-c2n[nH]cc2-c2ccncc2)s1 [Example 1]			75	0.96^[b]	90		% inhibition FB1 production at 50 μM (Fusarium proliferatum): 82%; % inhibition fungal growth at 50 μM (Fusarium proliferatum): 41%
Clc1ccc(-c2n[nH]cc2-c2ccncn2)s1 [Example 3]			86	1.74^[b]			% inhibition FB1 production at 50 μM (Fusarium proliferatum): 99%; % inhibition fungal growth at 50 μM (Fusarium proliferatum): 46%; log p ([2]; pH 2.3): 1.82^[a];
CC(C)Cn1ncc(-c2ccncc2)c1-c1ccc(Cl)s1 [Example 6]	75	70%	70				log p ([2]; pH 2.3): 2.2^[a]
CC(C)CCn1cc(-c2ccncc2)c(-c2ccc(Cl)s2)n1 [Example 17]		70%	70	2.45^[b]	100		
Clc1ccc(-c2nn(C3CCC3)cc2-c2ccncc2)s1 [Example 18]	83	89%		2.04^[b]	100	100%	
CC(C)Cn1cc(-c2ccncc2)c(-c2ccc(Cl)s2)n1 [Example 21]	89	75% and 85%	85	2.08^[b]	100	100%	% inhibition FB1 production at 50 μM (Fusarium proliferatum): 100%; % inhibition fungal growth at 50 μM (Fusarium proliferatum): 91%; % Inhibition of fungal growth at 50 μM (Fusarium graminearum): 96%; % Inhibition of DON/AcDON at 50 μM (Fusarium graminearum): 100%
Clc1ccc(-c2nn(C3CCCCO3)cc2-c2ccncc2)s1 (stereo not shown) [Example 45]			71	1.91^[b]			
ClC(Cl)=CCn1cc(-c2ccncc2)c(-c2ccc(Cl)s2)n1 [Example 50]				2.3^[b]	70		efficacy (Rhizoctonia solani): 93%; logP value of the minor isomer (in parenthesis in column Isomer ratio [d]) ([2]; pH 2.7): (2.07)
COCn1cc(-c2ccncc2)c(-c2ccc(Cl)s2)n1 [Example 52]	90	97%	97	1.38^[b]	86	at least 70%	
FC(F)(F)Cn1cc(-c2ccncc2)c(-c2ccc(Cl)s2)n1 [Example 54]				1.88^[b]			efficacy (Rhizoctonia solani): 100%; efficacy (Cochliobolus miyabeanus): 90%
FCCn1cc(-c2ccncc2)c(-c2ccc(Cl)s2)n1 [Example 62]	94	88%		1.39^[b]		98%	protection (Peronospora parasitica): 89%; logP value of the minor isomer (in parenthesis in column Isomer ratio [d]) ([2]; pH 2.7): (1.25)
CCC(CC)n1cc(-c2ccncc2)c(-c2ccc(Cl)s2)n1 [Example 64]	98	88%	88	2.18^[b]	95	98%	efficacy (Alternaria solani): 80%; efficacy (Leptosphaeria nodorum): 78%; efficacy (Rhizoctonia solani): 100%; efficacy (Cochliobolus miyabeanus): 97%
Nc1cc(-c2cn(CCF)nc2-c2ccc(Cl)s2)ccn1 [Example 296]				1.46^[b]	70		% Inhibition of fungal growth at 50 μM (Aspergillus parasiticus): 47%; % Inhibition of Aflatoxin at 50 μM (Aspergillus parasiticus): 74%
CCC(C)n1nc(-c2ccc(Cl)s2)c(-c2ccncc2)c1SC (stereo not shown) [Example 298]				3.35^[b]			efficacy (Alternaria solani): 95%; % Inhibition of fungal growth at 50 μM (Fusarium graminearum): 38%; % Inhibition of DON/AcDON at 50 μM (Fusarium graminearum): 100%; % Inhibition of fungal growth at 50 μM (Aspergillus parasiticus): 64%; % Inhibition of Aflatoxin at 50 μM (Aspergillus parasiticus): 99%
